Data taken from patent publication US20090105278A1, “Selective inhibitors of human corticosteroid syntheses” (Universitat Des Saarlandes, priority 2004, published 2009).
Structures can show the parent of a compound that is named as a salt. Where two headings read alike, the source gives them in different places.

Columns and labels:
human CYP17 = target: T1, human CYP17 (Homo sapiens, UniProt P05093); test: Percent inhibition of CYP17 (membrane fraction of E. coli pJL17/OR); format: biochemical; conditions: E. coli which expresses human CYP17, 5 mg/ml protein, progesterone substrate 2.5 μM, inhibitor 2.5 μM; for inhibition at 2.5 µM: read-out: % Inhibition human CYP17
T1 construct: made in house; host or cells: E. coli pJL17/OR (membrane fraction)
T1 sequence (P05093 1-508): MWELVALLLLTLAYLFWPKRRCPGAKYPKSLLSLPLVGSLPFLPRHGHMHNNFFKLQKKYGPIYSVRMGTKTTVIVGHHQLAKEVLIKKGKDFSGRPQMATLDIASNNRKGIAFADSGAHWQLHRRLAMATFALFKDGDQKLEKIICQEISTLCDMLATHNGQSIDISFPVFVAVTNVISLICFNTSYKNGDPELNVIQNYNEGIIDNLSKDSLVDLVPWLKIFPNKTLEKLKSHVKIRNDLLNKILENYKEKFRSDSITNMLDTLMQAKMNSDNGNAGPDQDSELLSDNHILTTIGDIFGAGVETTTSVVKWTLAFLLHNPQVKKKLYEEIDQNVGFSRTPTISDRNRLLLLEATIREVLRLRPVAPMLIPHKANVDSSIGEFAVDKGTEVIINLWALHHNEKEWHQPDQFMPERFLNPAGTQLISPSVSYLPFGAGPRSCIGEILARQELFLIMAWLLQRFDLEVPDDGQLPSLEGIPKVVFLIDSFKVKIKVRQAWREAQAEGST
In short: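 Membranes were isolated from E. coli pJL17/OR, which coexpresses human CYP17 with rat NADPH-P450-reductase, by lysozyme treatment, sonication and centrifugation at 50,000 g, then stored at −70° C. Reactions were started with diluted membrane suspension (0.8 to 1 mg of protein per ml), incubated at 37° C for 30 min, extracted with EtOAc and analyzed by HPLC. Inhibition was calculated from reduced substrate conversion versus DMSO controls.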

human CYP11B1 = target: T2, human CYP11B1 (Homo sapiens, UniProt P15538); test: V79 MZh 11B1 cells inhibition test; format: cell-based
T2 construct: expressed in transfected cells; host or cells: V79 MZh11B1 (Chinese hamster lung fibroblasts)
T2 sequence (P15538 25-503): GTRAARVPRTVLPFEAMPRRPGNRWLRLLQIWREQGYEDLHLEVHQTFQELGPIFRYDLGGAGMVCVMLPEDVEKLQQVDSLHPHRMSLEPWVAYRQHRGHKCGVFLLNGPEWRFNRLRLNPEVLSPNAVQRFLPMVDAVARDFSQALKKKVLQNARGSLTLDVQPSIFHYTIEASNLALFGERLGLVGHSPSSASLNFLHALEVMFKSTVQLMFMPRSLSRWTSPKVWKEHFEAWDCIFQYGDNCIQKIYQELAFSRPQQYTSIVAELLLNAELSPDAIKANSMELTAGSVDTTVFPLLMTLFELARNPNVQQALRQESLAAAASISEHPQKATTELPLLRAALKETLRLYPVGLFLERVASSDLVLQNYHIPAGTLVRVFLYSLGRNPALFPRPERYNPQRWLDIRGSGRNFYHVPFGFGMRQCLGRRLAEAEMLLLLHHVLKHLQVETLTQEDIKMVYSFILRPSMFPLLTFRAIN
Protocol: Both cell lines were cultured in DMEM^+ containing […] and the antibiotics penicillin and streptomycin (10%) for protection from bacterial contamination. The cells were passaged every 2-3 days after treatment with trypsin/EDTA because the doubling rate was 1-2 days depending on the number of cells. […] When there was further need, freshly thawed cells were employed.
Thereafter, the plate was stored at 37° C. and […] in a CO2 incubator. […] Controls without inhibitor were treated in the same way. The enzyme reactions were quenched by extracting the supernatant with 500 μl of EtOAc. The samples were centrifuged (10,000 g, 2 min), the solvent was removed and evaporated.
It was calculated by determining the percent inhibition for at least 3 different inhibitor concentrations, which must all be in the linear range of the sigmoidal IC50 curve (log C/% inhibition).
The calculation was effected by linear regression. The values determined were used only if they formed a straight line with a reliability of […].
The plate was developed twice with the mobile solvent chloroform:methanol:water (300:20:1). Unlabeled 11-deoxycorticosterone and corticosterone were applied as a reference for the CYP11B1 reaction. For the CYP11B2 reaction, 11-deoxycorticosterone, corticosterone, 18-hydroxycorticosterone and aldosterone were used as references. The detection of the unlabeled references was effected at 260 nm. Subsequently, imaging plates (BAS MS2340, for ^14C samples, Raytest, Straubenhardt, Germany) were exposed to the HPTLC plates for 48 h. The imaging plates were scanned with the phosphoimager system Fuji FLA 3000 (Raytest, Straubenhardt, Germany), and the steroids were quantified.

[1] = hamster fibroblasts which express human CYP11B1, deoxycorticosterone substrate 100 nM, read-out: IC50 V79 11B1 hCYP11B1

| Molecule | % Inhibition human CYP17 (human CYP17) [%] | IC50 (human CYP11B1; [1]) [nM] | inhibition at 2.5 µM (human CYP17) [%] | IC50 (human CYP11B1; Table 7: preincubation 1 h, DOC 100 nM, incubation 140 min, read-out: V79MZh11B1 CYP11B1 DOC [IC50]) [nM] |
| --- | --- | --- | --- | --- |
| 5-[(E)-(6-Chloro-3,4-dihydronaphth-1(2H)-ylidene)methyl]-1H-imidazolium chloride [Compound 46a] | 24 | – | – | – |
| 5-[(Z)-3,4-Dihydronaphth-1(2H)-ylidenemethyl]-1H-imidazolium oxalate [Compound 41b] | 13 | – | – | – |
| 5-[(Z)-(5-Bromo-2,3-dihydro-1H-indene-1-ylidene)methyl]-1H-imidazolium oxalate [Compound 49b] | 15 | 23.5 | – | – |
| 5-[(Z)-(5-Chloro-2,3-dihydro-1H-indene-1-ylidene)methyl]-1H-imidazolium oxalate [Compound 48b] | 26 | – | – | – |
| C(=C1/CCc2ccccc21)/c1cccnc1 [Compound 1a, 3-[(E)-2,3-Dihydro-1H-indane-1-ylidenemethyl]pyridine Hydrochloride] | – | 888 | 14 | – |
| C(=C1\CCc2ccccc21)/c1cccnc1.Cl [Compound 1b, 3-[(Z)-2,3-Dihydro-1H-indane-1-ylidenemethyl]pyridine Hydrochloride] | 33 | 86.6 | – | – |
| C(=C1\CCc2ccccc21)/c1ccncc1 [Compound 2b, 4-[(Z)-2,3-Dihydro-1H-indane-1-ylidenemethyl]pyridine oxalate] | – | 1320 | 18 | – |
| C(=C1/CCCc2ccccc21)/c1cccnc1.Cl [Compound 3a, 3-[(E)-3,4-Dihydronaphthalene-1(2H)-ylidenemethyl]pyridine Hydrochloride] | – | 715 | 9 | – |
| C(=C1\CCCc2ccccc21)/c1cccnc1.Cl [Compound 3b, 3-[(Z)-3,4-Dihydronaphthalene-1(2H)-ylidenemethyl]pyridine Hydrochloride] | – | 1420 | 24 | – |
| Fc1ccc2c(c1)CC/C2=C\c1cccnc1 [Compound 5a, 3-[(E)-(5-Fluoro-2,3-dihydro-1H-indane-1-ylidene)methyl]pyridine Hydrochloride] | – | 311 | 17 | – |
| Fc1ccc2c(c1)CC/C2=C/c1cccnc1 [Compound 5b, 3-[(Z)-(5-Fluoro-2,3-dihydro-1H-indane-1-ylidene)methyl]pyridine Hydrochloride] | – | 125 | 16 | 125 |
| Fc1ccc2c(c1)CC/C2=C\c1ccncc1 [Compound 6a, 4-[(E)-(5-Fluoro-2,3-dihydro-1H-indane-1-ylidene)methyl]pyridine Hydrochloride] | – | 380 | 15 | – |
| Fc1ccc2c(c1)CC/C2=C/c1ccncc1 [Compound 6b, 4-[(Z)-(5-Fluoro-2,3-dihydro-1H-indane-1-ylidene)methyl]pyridine Hydrochloride] | – | 257 | 29 | – |
| Clc1ccc2c(c1)CC/C2=C\c1cccnc1 [Compound 7a, 3-[(E)-(5-Chloro-2.3-dihydro-1H-indane-1-ylidene)methyl]pyridine Hydrochloride] | – | 1470 | 26 | – |
| Clc1ccc2c(c1)CC/C2=C/c1cccnc1 [Compound 7b, 3-[(Z)-(5-Chloro-2,3-dihydro-1H-indane-1-ylidene)methyl]pyridine Hydrochloride] | – | 270 | 28 | – |
| Clc1ccc2c(c1)CC/C2=C\c1ccncc1 [Compound 8a, 4-[(E)-(5-Chloro-2,3-dihydro-1H-indane-1-ylidene)methyl]pyridine Hydrochloride] | – | 243 | 18 | – |
| Brc1ccc2c(c1)CC/C2=C\c1cccnc1 [Compound 9a, 3-[(E)-(5-Bromo-2,3-dihydro-1H-indane-1-ylidene)methyl]pyridine Hydrochloride] | – | 1940 | 16 | – |
| Brc1ccc2c(c1)CC/C2=C/c1cccnc1 [Compound 9b, 3-[(Z)-(5-Bromo-2,3-dihydro-1H-indane-1-ylidene)methyl]pyridine Hydrochloride] | – | 320 | 24 | – |
| Brc1ccc2c(c1)CC/C2=C\c1ccncc1 [Compound 10a, 4-[(E)-(5-Bromo-2,3-dihydro-1H-indane-1-ylidene)methyl]pyridine Hydrochloride] | – | 948 | 24 | – |
| COc1ccc2c(c1)CC/C2=C\c1cccnc1 [Compound 11a, 3-[(E)-(5-Methoxy-2,3-dihydro-1H-indane-1-ylidene)methyl]pyridine Hydrochloride] | – | 1450 | 36 | – |
| COc1ccc2c(c1)CC/C2=C/c1cccnc1 [Compound 11b, 3-[(Z)-(5-Methoxy-2,3-dihydro-1H-indane-1-ylidene)methyl]pyridine Hydrochloride] | – | 790 | 49 | – |
| COc1ccc2c(c1)CCC/C2=C\c1cccnc1 [Compound 13a, 3-[(E)-(6-Methoxy-3,4-dihydronaphthalene-1(2H)-ylidene)methyl]pyridine Hydrochloride] | – | 903 | 20 | – |
| COc1ccc2c(c1)CCC/C2=C/c1cccnc1.Cl [Compound 13b, 3-[(Z)-(6-Methoxy-3,4-dihydronaphthalene-1(2H)-ylidene)methyl]pyridine Hydrochloride] | – | 206 | 17 | – |
| CCOc1ccc2c(c1)CC/C2=C\c1cccnc1 [Compound 19a, 3-[(E)-(5-Ethoxy-2,3-dihydro-1H-indane-1-ylidene)methyl]pyridine Hydrochloride] | – | 2370 | 13 | – |
| CCOc1ccc2c(c1)CC/C2=C/c1cccnc1 [Compound 19b, 3-[(Z)-(5-Ethoxy-2,3-dihydro-1H-indane-1-ylidene)methyl]pyridine Hydrochloride] | – | 2700 | 6 | – |
| Cc1cccc2c1CC/C2=C\c1cccnc1 [Compound 23a, 3-[(E)-(4-Methyl-2,3-dihydro-1H-indane-1-ylidene)methyl]pyridine Hydrochloride] | – | 763 | 40 | – |
| Fc1cccc2c1CC/C2=C\c1cccnc1 [Compound 24a, 3-[(E)-(4-Fluoro-2,3-dihydro-1H-indane-1-ylidene)methyl]pyridine Hydrochloride] | – | 774 | 42 | – |
| C(=C1/CCCc2ccccc21)/c1cnc[nH]1 [Compound 41a, 5-[(E)-3,4-Dihydronaphth-1(2H)-ylidenemethyl]-1H-imidazole] | – | – | 13 | – |
| Cl.Clc1ccc2c(c1)CC/C2=C\c1cnc[nH]1 [Compound 48a, 5-[(E)-(5-Chloro-2,3-dihydro-1H-indene-1-ylidene)methyl]-1H-imidazolium chloride] | – | – | 37 | – |
| Brc1ccc2c(c1)CC/C2=C\c1cnc[nH]1.Cl [Compound 49a, 5-[(E)-(5-Bromo-2,3-dihydro-1H-indene-1-ylidene)methyl]-1H-imidazolium chloride] | – | – | 13 | – |
